The source of these data is US12410160B2 (Gilead Sciences, Inc., priority 2021, dated 2025).

In one test the target is human KHK-C (Homo sapiens (Human), UniProt P50053). Put plainly: KHK Biochemical Assay (IC50), ADP-Glo, KHK-C. The settings on record: average of at least two separate assays. The procedure, abridged:
(§1)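 His-tagged enzyme expressed in BL21 (DE3), Ni-NTA purified. Compounds, serially diluted 1:3 in DMSO, pre-incubated 30 min with enzyme in 50 mM Hepes pH 7.4, 140 mM KCl, 5 mM MgCl2, 0.01% Triton-X, then ATP and fructose added; 4 h at room temperature. ADP formation read by ADP-Glo luminescence.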

A further test has as its target human KHK-A (Homo sapiens (Human), UniProt P50053). Description: KHK Biochemical Assay (IC50), ADP-Glo, KHK-A. The settings on record: average of at least two separate assays. The method in brief:
as §1

Test [1] deals with KHK-C expressed in NRK-52E cells (Homo sapiens (Human), UniProt P50053). Description: KHK-C Cell-based Assay (EC50), NRK CTG, fructose-mediated ATP-depletion.
Method: Compounds were tested in a high-throughput 384-well assay format for their ability to attenuate fructose-mediated ATP-depletion in Normal Rat Kidney epithelial cells (NRK-52E) using the Cell-Titer Glo (CTG) assay, which measures cellular ATP levels based on luminescence signal by using the luciferase-luciferin system. Compounds were serially diluted (1:3) in DMSO.
The plates were incubated at 37° C., 5% CO2 for one day. Cells were then transduced on day 2 with 200 MOI of Adenovirus (VQAd KHKC C-(K)-DYK ViraQuest Inc.) using the same medium and method as day-1 to induce KHK-C expression in the cells. Cells were incubated at 37° C., 5% CO2 for one day. On day-3, the medium was changed to DMEM medium (Corning, Catalog #10-014-CM) with 0.5% FBS and Penicillin-Streptomycin after washing the cells twice with sterile PBS on the BioTEK EL406 washer and dispenser. Test compounds were then diluted 200-fold into the assay plates using the BioMek FX and were incubated for 1 hour at 37° C., 5% CO2. 25 mM (final concentration) of fructose was then dispensed into the plates using the BioTEK EL406 dispenser and the plates were incubated at 37° C., 5% CO2 for 48 hours before addition of CTG reagent and measurement of luminescence signal.

Like-named read-outs stand apart in the source and are kept apart here. Where only a bound is given, the exact number is not on record here.

Sequence of KHK-C expressed in NRK-52E cells (P50053 whole entry): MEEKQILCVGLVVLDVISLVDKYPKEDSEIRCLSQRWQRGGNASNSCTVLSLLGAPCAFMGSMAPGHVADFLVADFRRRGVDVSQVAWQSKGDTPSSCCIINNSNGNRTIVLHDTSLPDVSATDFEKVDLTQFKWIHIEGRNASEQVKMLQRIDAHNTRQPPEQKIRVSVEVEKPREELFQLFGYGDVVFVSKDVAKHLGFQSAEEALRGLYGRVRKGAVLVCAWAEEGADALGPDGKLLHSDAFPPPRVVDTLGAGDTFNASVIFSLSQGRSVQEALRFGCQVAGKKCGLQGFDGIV
Sequence of human KHK-C (P50053 whole entry): as above
Sequence of human KHK-A (P50053 other isoform, or with tags, fused parts or gaps): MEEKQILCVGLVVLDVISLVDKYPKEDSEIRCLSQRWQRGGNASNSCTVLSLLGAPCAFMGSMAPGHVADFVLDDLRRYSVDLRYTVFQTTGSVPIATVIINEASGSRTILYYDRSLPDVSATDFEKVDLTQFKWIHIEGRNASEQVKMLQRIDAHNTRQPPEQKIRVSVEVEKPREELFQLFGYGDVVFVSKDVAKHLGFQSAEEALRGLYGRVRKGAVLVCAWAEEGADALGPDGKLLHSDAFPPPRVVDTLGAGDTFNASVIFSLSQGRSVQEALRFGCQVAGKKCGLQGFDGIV

Turning to `C[C@H]1CCN1c1nc2c(c(-c3cccc4c3CC3C(C(=O)O)C43)n1)CCC2` (stereo partly drawn) [Example 432, 5-[2-[(2S)-2-methylazetidin-1-yl]-6,7-dihydro-5H-cyclopenta[d]pyrimidin-4-yl]-1,1a,6,6a-tetrahydrocyclopropa[a]indene-1-carboxylic acid], the concentration for half-maximal inhibition (IC50) (in general, the midpoint of a concentration-inhibition curve) at human KHK-C amounted to 0.36 µM; at human KHK-A, 0.323 µM. For the same compound, in test [1], the EC50 (commonly the midpoint of the concentration-response curve) is 2.63 µM.

Take `C[C@H]1CCN1c1nc2c(c(-c3cc4cccc(C(N)=O)c4[nH]3)n1)CCC2` [Example 154, (S)-2-(2-(2-methylazetidin-1-yl)-6,7-dihydro-5H-cyclopenta[d]pyrimidin-4-yl)-1H-indole-7-carboxamide]: the IC50 on human KHK-C (ADP-Glo) came to 0.0904 µM; on human KHK-A (ADP-Glo), 0.0458 µM. This compound also registered an EC50 in test [1] of 0.034 µM.

Consider `C[C@H]1CCN1c1nc2c(c(-c3ccc4c(c3)[C@]3(C[C@H]3c3nc[nH]n3)C(=O)N4)n1)CCC2` [Example 414, (1R,2R)-5′-(2-((S)-2-methylazetidin-1-yl)-6,7-dihydro-5H-cyclopenta[d]pyrimidin-4-yl)-2-(1H-1,2,4-triazol-3-yl)spiro[cyclopropane-1,3′-indolin]-2′-one], for which the IC50 was 0.138 µM on human KHK-C and 0.397 µM against human KHK-A. Also, in test [1], the EC50 was greater than 5 µM.

As for `C[C@H]1[C@H](O)CN1c1nc2c(c(-c3ccc(-c4ncc[nH]4)cc3)n1)CCC2` [Example 193, (2S,3R)-1-[4-[4-(1H-imidazol-2-yl)phenyl]-6,7-dihydro-5H-cyclopenta[d]pyrimidin-2-yl]-2-methyl-azetidin-3-ol], the IC50 worked out at 0.0978 µM on human KHK-C (ADP-Glo) and 0.0734 µM at human KHK-A (ADP-Glo). This compound came in with an EC50 in test [1] of 0.412 µM.

Turning to `C[C@H]1CCN1c1nc2c(c(-c3ccc4[nH]nnc4c3)n1)CCC2` [Example 729, (S)-5-(2-(2-methylazetidin-1-yl)-6,7-dihydro-5H-cyclopenta[d]pyrimidin-4-yl)-1H-benzo[d][1,2,3]triazole], the figures for the IC50 against human KHK-C and at human KHK-A were 0.0335 µM and 0.0291 µM, respectively. The compound further returned an EC50 in test [1] of 0.273 µM.

Consider `NC(=O)c1ccc(-c2nc(N3CC(O)[C@@H]3Cc3ccccc3)nc3c2CCC3)cc1` (stereo partly drawn) [Example 431, 4-[2-[(2S)-2-benzyl-3-hydroxy-azetidin-1-yl]-6,7-dihydro-5H-cyclopenta[d]pyrimidin-4-yl]benzamide], for which the IC50 against human KHK-C amounted to 0.513 µM; against human KHK-A, 0.808 µM. In test [1], this compound displayed an EC50 of 0.711 µM.

Regarding `C[C@H]1CCN1c1nc2c(c(-c3cccc(C(N)C(F)(F)F)c3)n1)CCC2` (stereo partly drawn) [Example 246, 2,2,2-trifluoro-1-[3-[2-[(2S)-2-methylazetidin-1-yl]-6,7-dihydro-5H-cyclopenta[d]pyrimidin-4-yl]phenyl]ethanamine], the figures for the IC50 against human KHK-C (ADP-Glo) and at human KHK-A (ADP-Glo) were 0.163 µM and 0.36 µM, respectively. Moreover, the response in test [1] was half-maximal at 0.422 µM (EC50).

As to “(S)-6-(2-(2-methylazetidin-1-yl)-6,7-dihydro-5H-cyclopenta[d]pyrimidin-4-yl)pyridine-2-sulfonamide [Example 223]”, the figures for the IC50 at human KHK-C (ADP-Glo) and on human KHK-A (ADP-Glo) were 0.0269 µM and 0.0337 µM, respectively. Moreover, the EC50 in test [1] (read-out: NRK CTG EC50, NRK-52E cells, fructose-mediated ATP-depletion, Cell-Titer Glo) was 0.0741 µM.

Regarding `C[C@H]1CCN1c1nc2c(c(-c3ccc(CN4CC(O)C4)cc3)n1)CCC2` [Example 365, 1-[[4-[2-[(2S)-2-methylazetidin-1-yl]-6,7-dihydro-5H-cyclopenta[d]pyrimidin-4-yl]phenyl]methyl]azetidin-3-ol], the figures for the half-maximal inhibitory concentration (IC50) on human KHK-C (ADP-Glo) and at human KHK-A (ADP-Glo) were 0.019 µM and 0.0272 µM, respectively. The compound also gave an EC50 in test [1] of 0.0293 µM.

As for `C[C@H]1[C@H](F)CN1c1nc2c(c(-c3cccc(NS(C)(=O)=O)c3)n1)CCC2` [Example 290, N-(3-(2-((2S,3R)-3-fluoro-2-methylazetidin-1-yl)-6,7-dihydro-5H-cyclopenta[d]pyrimidin-4-yl)phenyl)methanesulfonamide], the IC50 was 0.0309 µM against human KHK-C (ADP-Glo) and 0.0505 µM on human KHK-A (ADP-Glo). It took 0.0713 µM to reach a half-maximal effect in test [1] (EC50).

`C[C@H]1CCN1c1nc2c(c(-c3ccc(-c4ncc[nH]4)cc3)n1)CCC2` [Example 185, 4-[4-(1H-imidazol-2-yl)phenyl]-2-[(2S)-2-methylazetidin-1-yl]-6,7-dihydro-5H-cyclopenta[d]pyrimidine]: the values for the IC50 at human KHK-C (ADP-Glo) and at human KHK-A (ADP-Glo) were 0.0488 µM and 0.0606 µM, respectively. For the same compound, the EC50 in test [1] was found to be 0.0839 µM.

`C[C@H]1CCN1c1nc2c(c(-c3ccc4c(c3)C[C@@H]3[C@@H](C(N)=O)[C@H]43)n1)CCC2` (relative stereo) [Example 137, (1R,1aR*,6aS*)-4-(2-((S)-2-methylazetidin-1-yl)-6,7-dihydro-5H-cyclopenta[d]pyrimidin-4-yl)-1,1a,6,6a-tetrahydrocyclopropa[a]indene-1-carboxamide]: the IC50 on human KHK-C (ADP-Glo) turned out to be 0.0903 µM; on human KHK-A (ADP-Glo), 0.216 µM. This compound also registered an EC50 in test [1] of 0.1 µM.

Turning to `CNCc1cccc(-c2nc(N3CC[C@@H]3C)nc3c2CCC3)c1` [Example 330, N-methyl-1-[3-[2-[(2S)-2-methylazetidin-1-yl]-6,7-dihydro-5H-cyclopenta[d]pyrimidin-4-yl]phenyl]methanamine], the IC50 stood at 0.0192 µM against human KHK-C (ADP-Glo) and 0.0224 µM against human KHK-A (ADP-Glo). The compound further displayed an EC50 in test [1] of 0.0131 µM.

`C[C@H]1CCN1c1nc2c(c(-c3cc4c(C(=O)O)cccc4[nH]3)n1)CCC2` [Example 155, (S)-2-(2-(2-methylazetidin-1-yl)-6,7-dihydro-5H-cyclopenta[d]pyrimidin-4-yl)-1H-indole-4-carboxylic acid]: the IC50 against human KHK-C (ADP-Glo) came out at 0.0995 µM; against human KHK-A (ADP-Glo), 0.232 µM. In test [1], this compound yielded an EC50 of 4.79 µM.

For `C[C@H]1CCN1c1nc2c(c(-c3ccc4c(c3)OCCNC4=O)n1)CCC2` [Example 149, (S)-8-(2-(2-methylazetidin-1-yl)-6,7-dihydro-5H-cyclopenta[d]pyrimidin-4-yl)-3,4-dihydrobenzo[f][1,4]oxazepin-5(2H)-one], the IC50 against human KHK-C (ADP-Glo) is 0.0067 µM; on human KHK-A (ADP-Glo) it was 0.0332 µM. In test [1], this compound showed an EC50 of 0.0188 µM.

`CNC(=O)c1cccc(-c2nc(N3CC[C@@H]3C)nc3c2CCC3)c1` [Example 28, (S)—N-methyl-3-(2-(2-methylazetidin-1-yl)-6,7-dihydro-5H-cyclopenta[d]pyrimidin-4-yl)benzamide]: the IC50 worked out at 0.0503 µM on human KHK-C (ADP-Glo) and 0.0552 µM against human KHK-A (ADP-Glo). Also, the EC50 in test [1] came to 0.137 µM.

In the case of `C[C@H]1[C@H](O)CN1c1nc2c(c(-c3ccc(C(N)=O)c(F)c3)n1)CCC2` [Example 307], the values for the IC50 on human KHK-C (ADP-Glo) and against human KHK-A (ADP-Glo) were 0.0699 µM and 0.0865 µM, respectively. The compound further returned an EC50 in test [1] of 0.166 µM.

As to `C[C@H]1CCN1c1nc2c(c(-c3nc4ccccc4n3C)n1)CCC2` [Example 391, 1-methyl-2-[2-[(2S)-2-methylazetidin-1-yl]-6,7-dihydro-5H-cyclopenta[d]pyrimidin-4-yl]benzimidazole], the IC50 against human KHK-C (ADP-Glo) worked out at 0.915 µM; against human KHK-A (ADP-Glo), 2.19 µM. In test [1], this compound yielded an EC50 of 1.81 µM.

Turning to `C[C@H]1CCN1c1nc2c(c(-c3cc4cc(C(N)=O)ccc4[nH]3)n1)CCC2` [Example 152, (S)-2-(2-(2-methylazetidin-1-yl)-6,7-dihydro-5H-cyclopenta[d]pyrimidin-4-yl)-1H-indole-5-carboxamide], the IC50 against human KHK-C (ADP-Glo) was 0.094 µM; at human KHK-A (ADP-Glo), 0.0636 µM. In test [1], it took 0.2 µM to reach a half-maximal effect (EC50).

For `C[C@H]1CCN1c1nc2c(c(-c3cccc(NS(=O)(=O)CC(=O)O)c3)n1)CCC2` [Example 81, (S)-2-(N-(3-(2-(2-methylazetidin-1-yl)-6,7-dihydro-5H-cyclopenta[d]pyrimidin-4-yl)phenyl)sulfamoyl)acetic acid], the IC50 at human KHK-C (ADP-Glo) came to 0.0076 µM; at human KHK-A (ADP-Glo), 0.0095 µM. Besides, the EC50 in test [1] is greater than 5 µM.

On to `C[C@H]1CCN1c1nc(-c2cccc(C(N)=O)c2)c2c(cnn2C)n1` [Example 271, (S)-3-(1-methyl-5-(2-methylazetidin-1-yl)-1H-pyrazolo[4,3-d]pyrimidin-7-yl)benzamide], for which the figures for the IC50 on human KHK-C (ADP-Glo) and against human KHK-A (ADP-Glo) were 0.532 µM and 0.518 µM, respectively. The compound also came in with an EC50 in test [1] of 2.32 µM.

As to `C[C@]1(O)CCN(c2nc3c(c(-c4ccc(C(N)=O)cc4)n2)CCC3)C1` [Example 268, 4-[2-[(38)-3-hydroxy-3-methyl-pyrrolidin-1-yl]-6,7-dihydro-5H-cyclopenta[d]pyrimidin-4-yl]benzamide], the IC50 on human KHK-C (ADP-Glo) and on human KHK-A (ADP-Glo) was greater than 5 µM each time. For the same compound, the EC50 in test [1] is greater than 5 µM.

As to `C[C@H]1[C@H](O)CN1c1nc(-c2ccc3c(c2)OC[C@]32CN(C)C(=O)N2)c2c(n1)C(F)(F)CC2` (single isomer, unassigned) [Example 701], the IC50 against human KHK-C worked out at 0.0205 µM; against human KHK-A, 0.0318 µM. The same compound came in with an EC50 in test [1] of 0.108 µM.

`C[C@H]1CCN1c1nc2c(c(-c3cc4cc(C(=O)O)ccc4[nH]3)n1)CCC2` [Example 153, (S)-2-(2-(2-methylazetidin-1-yl)-6,7-dihydro-5H-cyclopenta[d]pyrimidin-4-yl)-1H-indole-5-carboxylic acid]: the IC50 was determined as 0.0666 µM against human KHK-C (ADP-Glo) and 0.186 µM on human KHK-A (ADP-Glo). The compound also had an EC50 in test [1] of 4 µM.

On to `C[C@H]1CCN1c1nc2c(c(-c3cc4c(=O)[nH]ccc4s3)n1)CCC2` [Example 384, 2-[2-[(2S)-2-methylazetidin-1-yl]-6,7-dihydro-5H-cyclopenta[d]pyrimidin-4-yl]-5H-thieno[3,2-c]pyridin-4-one], for which the IC50 stood at 0.0147 µM on human KHK-C (ADP-Glo) and 0.0029 µM on human KHK-A (ADP-Glo). The compound further had an EC50 in test [1] of 0.0197 µM.

On to `C[C@H]1CCN1c1nc2c(c(-c3cc(C(N)=O)c4ccccc4c3)n1)CCC2` [Example 423, (S)-3-(2-(2-methylazetidin-1-yl)-6,7-dihydro-5H-cyclopenta[d]pyrimidin-4-yl)-1-naphthamide], for which the results for the IC50 at human KHK-C and on human KHK-A were 0.0814 µM and 0.0661 µM, respectively. Besides, the EC50 in test [1] is 0.239 µM.
